The values below come from PubChem BioAssay (NCI).

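Cells were grown in 96-well plates and exposed to each compound for 48 hours at five concentrations; endpoints were interpolated linearly between bracketing concentrations, or set to the highest concentration if not reached. TGI denotes the concentration required for complete inhibition of growth.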

The subject of the first assay is LOX IMVI melanoma. Description: inhibition of tumour cell growth, NCI panel, 48 h.
`N#Cc1c(N)nc(-c2ccc(Cl)cc2)c2c1-c1ccccc1S(=O)(=O)CC2` registered a TGI greater than 100 µM.
Same read-out and setting: the same measure for `O=C1/C(=C/c2ccccc2O)N=C(c2ccccc2)N1C1Nc2cc3c(cc2S1)NC(N1C(=O)/C(=C/c2ccccc2O)N=C1c1ccccc1)S3` (configuration not stated): greater than 100 µM; for `CCOC(CN(C)C(=O)Nc1cccc2ccccc12)OCC`: greater than 10 µM; for `O=c1oc2ccc3ccccc3c2cc1-c1cn2ccccc2n1`: greater than 100 µM.

The next assay relates to MALME-3M melanoma. The assay is described as follows: inhibition of tumour cell growth, NCI panel, 48 h.
The molecule `N#Cc1c(N)nc(-c2ccc(Cl)cc2)c2c1-c1ccccc1S(=O)(=O)CC2` came in with a TGI greater than 100 µM.
The same measure, in the same setting: the same measure for `CCOC(CN(C)C(=O)Nc1cccc2ccccc12)OCC`: greater than 10 µM.

The test system of the next assay is A498 renal. The assay is described as follows: inhibition of tumour cell growth, NCI panel, 48 h.
Take `N#Cc1c(N)nc(-c2ccc(Cl)cc2)c2c1-c1ccccc1S(=O)(=O)CC2`: the TGI was greater than 100 µM.
For the molecule `O=C1/C(=C/c2ccccc2O)N=C(c2ccccc2)N1C1Nc2cc3c(cc2S1)NC(N1C(=O)/C(=C/c2ccccc2O)N=C1c1ccccc1)S3` (configuration not stated), the TGI was greater than 100 µM.
On the same count and under the same terms, then `CCOC(CN(C)C(=O)Nc1cccc2ccccc12)OCC`, with greater than 10 µM.

A further assay relates to MOLT-4 leukemia. Description: inhibition of tumour cell growth, NCI panel, 48 h.
Consider `O=C1/C(=C/c2ccccc2O)N=C(c2ccccc2)N1C1Nc2cc3c(cc2S1)NC(N1C(=O)/C(=C/c2ccccc2O)N=C1c1ccccc1)S3` (configuration not stated), for which the TGI was greater than 100 µM.
The same measure, in the same setting: the same measure for `CCOC(CN(C)C(=O)Nc1cccc2ccccc12)OCC`: greater than 10 µM; for `O=c1oc2ccc3ccccc3c2cc1-c1cn2ccccc2n1`: greater than 100 µM.

The next assay deals with ACHN renal. Description: inhibition of tumour cell growth, NCI panel, 48 h.
Regarding `N#Cc1c(N)nc(-c2ccc(Cl)cc2)c2c1-c1ccccc1S(=O)(=O)CC2`, the TGI was greater than 100 µM.
On to `O=C1/C(=C/c2ccccc2O)N=C(c2ccccc2)N1C1Nc2cc3c(cc2S1)NC(N1C(=O)/C(=C/c2ccccc2O)N=C1c1ccccc1)S3` (configuration not stated), for which the TGI was greater than 100 µM.
The molecule `CCOC(CN(C)C(=O)Nc1cccc2ccccc12)OCC` gave a TGI greater than 10 µM.
In turn, `O=c1oc2ccc3ccccc3c2cc1-c1cn2ccccc2n1` registered a TGI of 94.2 µM.

In a further assay the test system is UACC-257 melanoma. Description: inhibition of tumour cell growth, NCI panel, 48 h.
Take `N#Cc1c(N)nc(-c2ccc(Cl)cc2)c2c1-c1ccccc1S(=O)(=O)CC2`: the TGI was greater than 100 µM.
Still for that read-out and setting: then `O=C1/C(=C/c2ccccc2O)N=C(c2ccccc2)N1C1Nc2cc3c(cc2S1)NC(N1C(=O)/C(=C/c2ccccc2O)N=C1c1ccccc1)S3` (configuration not stated), with greater than 100 µM; and `CCOC(CN(C)C(=O)Nc1cccc2ccccc12)OCC`, with greater than 10 µM; and `O=c1oc2ccc3ccccc3c2cc1-c1cn2ccccc2n1`, with greater than 100 µM.

The test system of another assay is UACC-62 melanoma. Description: inhibition of tumour cell growth, NCI panel, 48 h.
`N#Cc1c(N)nc(-c2ccc(Cl)cc2)c2c1-c1ccccc1S(=O)(=O)CC2`: the TGI was greater than 100 µM.
Still for that read-out and setting: the same measure for `CCOC(CN(C)C(=O)Nc1cccc2ccccc12)OCC`: greater than 10 µM.
`O=c1oc2ccc3ccccc3c2cc1-c1cn2ccccc2n1` showed a TGI greater than 100 µM.

In a further assay the test system is HOP-92 NSCLC. Description: inhibition of tumour cell growth, NCI panel, 48 h.
`N#Cc1c(N)nc(-c2ccc(Cl)cc2)c2c1-c1ccccc1S(=O)(=O)CC2` gave a TGI greater than 100 µM.
In turn, `O=C1/C(=C/c2ccccc2O)N=C(c2ccccc2)N1C1Nc2cc3c(cc2S1)NC(N1C(=O)/C(=C/c2ccccc2O)N=C1c1ccccc1)S3` (configuration not stated) gave a TGI of 15 µM.
The same measure, in the same setting: the same measure for `CCOC(CN(C)C(=O)Nc1cccc2ccccc12)OCC`: greater than 10 µM; for `O=c1oc2ccc3ccccc3c2cc1-c1cn2ccccc2n1`: greater than 100 µM.

The subject of a further assay is SF-539 CNS. Description: inhibition of tumour cell growth, NCI panel, 48 h.
For the molecule `O=C1/C(=C/c2ccccc2O)N=C(c2ccccc2)N1C1Nc2cc3c(cc2S1)NC(N1C(=O)/C(=C/c2ccccc2O)N=C1c1ccccc1)S3` (configuration not stated), the TGI was greater than 100 µM.
Still for that read-out and setting: then `CCOC(CN(C)C(=O)Nc1cccc2ccccc12)OCC`, with greater than 10 µM.
Same read-out and setting: the same measure for `O=c1oc2ccc3ccccc3c2cc1-c1cn2ccccc2n1`: greater than 100 µM.

Another assay has as its system HCC-2998 colon. The assay is described as follows: inhibition of tumour cell growth, NCI panel, 48 h.
In turn, `N#Cc1c(N)nc(-c2ccc(Cl)cc2)c2c1-c1ccccc1S(=O)(=O)CC2` yielded a TGI greater than 100 µM.
Still for that read-out and setting: the same measure for `O=C1/C(=C/c2ccccc2O)N=C(c2ccccc2)N1C1Nc2cc3c(cc2S1)NC(N1C(=O)/C(=C/c2ccccc2O)N=C1c1ccccc1)S3` (configuration not stated): greater than 100 µM; for `CCOC(CN(C)C(=O)Nc1cccc2ccccc12)OCC`: greater than 10 µM.
The same measure, in the same setting: the same measure for `O=c1oc2ccc3ccccc3c2cc1-c1cn2ccccc2n1`: greater than 100 µM.

For a further assay, the system named is RPMI-8226 leukemia. The assay is described as follows: inhibition of tumour cell growth, NCI panel, 48 h.
For the molecule `N#Cc1c(N)nc(-c2ccc(Cl)cc2)c2c1-c1ccccc1S(=O)(=O)CC2`, the TGI was greater than 100 µM.
The same measure, in the same setting: the same measure for `O=C1/C(=C/c2ccccc2O)N=C(c2ccccc2)N1C1Nc2cc3c(cc2S1)NC(N1C(=O)/C(=C/c2ccccc2O)N=C1c1ccccc1)S3` (configuration not stated): greater than 100 µM.
`CCOC(CN(C)C(=O)Nc1cccc2ccccc12)OCC` gave a TGI greater than 10 µM.
On the same count and under the same terms, then `O=c1oc2ccc3ccccc3c2cc1-c1cn2ccccc2n1`, with greater than 100 µM.

The test system of a further assay is SNB-75 CNS. Description: inhibition of tumour cell growth, NCI panel, 48 h.
`N#Cc1c(N)nc(-c2ccc(Cl)cc2)c2c1-c1ccccc1S(=O)(=O)CC2` yielded a TGI greater than 100 µM.
The molecule `CCOC(CN(C)C(=O)Nc1cccc2ccccc12)OCC` yielded a TGI greater than 10 µM.
On the same count and under the same terms, then `O=c1oc2ccc3ccccc3c2cc1-c1cn2ccccc2n1`, with greater than 100 µM.

A further assay deals with SK-MEL-2 melanoma. The assay is described as follows: inhibition of tumour cell growth, NCI panel, 48 h.
Molecule `N#Cc1c(N)nc(-c2ccc(Cl)cc2)c2c1-c1ccccc1S(=O)(=O)CC2` yielded a TGI greater than 100 µM.
Still for that read-out and setting: then `O=C1/C(=C/c2ccccc2O)N=C(c2ccccc2)N1C1Nc2cc3c(cc2S1)NC(N1C(=O)/C(=C/c2ccccc2O)N=C1c1ccccc1)S3` (configuration not stated), with greater than 100 µM; and `CCOC(CN(C)C(=O)Nc1cccc2ccccc12)OCC`, with greater than 10 µM.
On the same count and under the same terms, then `O=c1oc2ccc3ccccc3c2cc1-c1cn2ccccc2n1`, with greater than 100 µM.

For the next assay, the system named is MDA-N. The assay is described as follows: inhibition of tumour cell growth, NCI panel, 48 h.
Take `N#Cc1c(N)nc(-c2ccc(Cl)cc2)c2c1-c1ccccc1S(=O)(=O)CC2`: the TGI is greater than 100 µM.
On the same count and under the same terms, then `O=C1/C(=C/c2ccccc2O)N=C(c2ccccc2)N1C1Nc2cc3c(cc2S1)NC(N1C(=O)/C(=C/c2ccccc2O)N=C1c1ccccc1)S3` (configuration not stated), with greater than 100 µM; and `CCOC(CN(C)C(=O)Nc1cccc2ccccc12)OCC`, with greater than 10 µM; and `O=c1oc2ccc3ccccc3c2cc1-c1cn2ccccc2n1`, with greater than 100 µM.

The subject of another assay is COLO 205 colon. Description: inhibition of tumour cell growth, NCI panel, 48 h.
The molecule `N#Cc1c(N)nc(-c2ccc(Cl)cc2)c2c1-c1ccccc1S(=O)(=O)CC2` gave a TGI greater than 100 µM.
`CCOC(CN(C)C(=O)Nc1cccc2ccccc12)OCC` showed a TGI greater than 10 µM.
Still for that read-out and setting: the same measure for `O=c1oc2ccc3ccccc3c2cc1-c1cn2ccccc2n1`: greater than 100 µM.
